We go through four compounds from publication PMC11620517, “Novel hydrazone compounds with broad-spectrum antiplasmodial activity and synergistic interactions with antimalarial drugs” (Antimicrobial Agents and Chemotherapy, 2024).

For one data set, the target named is T1, human GST (Homo sapiens, UniProt P08263).
T1 construct: The open reading frames encoding PfGST, PbGST, and hGST were gene-synthesized; TEV cleavage site (C); Avitag (C); purchased InterRayBio, LLC; host or cells: E. coli BL21 (DE3)
T1 sequence (P08263 1-222): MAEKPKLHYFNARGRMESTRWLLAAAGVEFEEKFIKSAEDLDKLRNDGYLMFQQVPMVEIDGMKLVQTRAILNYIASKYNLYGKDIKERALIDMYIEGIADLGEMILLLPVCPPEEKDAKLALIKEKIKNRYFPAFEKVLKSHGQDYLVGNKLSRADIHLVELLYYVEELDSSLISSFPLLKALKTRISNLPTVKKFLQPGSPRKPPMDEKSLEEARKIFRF
In words: GST inhibition assay (CDNB). The format is biochemical. Here is the method: (§1) Enzymatic activities of recombinant GSTs were determined spectrophotometrically using the chromogenic substrate 1-chloro-2,4-dinitrobenzene (CDNB). Recombinant GST (0.35 mg/mL) was mixed with 1 mM CDNB in 100 mM HEPES. Stock solutions (10 mM) of the CB compounds and hemin were prepared in 100% dimethyl sulfoxide (DMSO) and then diluted at 0.5% DMSO ([14]). Each inhibitor has six concentrations ranging from 1 to 50 µM. The reaction was initiated with 1 mM glutathione (GSH) after 15 minutes. Absorbance change at 340 nm was measured for 1 hour. The slope was converted to micromole per minute using Beer’s equation and the extinction coefficient for the product S-(2,4-dinitrophenyl)glutathione (ε340 nm = 9.6 mM^–1 cm^–1) ([14]). The assay was validated using human placenta GST (#G8642) as a positive control.

Data set [1] addresses T2, recombinant P. falciparum GST (Plasmodium falciparum, UniProt Q8ILQ7).
T2 construct: The open reading frames encoding PfGST, PbGST, and hGST were gene-synthesized; TEV cleavage site (C); Avitag (C); purchased InterRayBio, LLC; host or cells: E. coli BL21 (DE3)
T2 sequence (Q8ILQ7 1-211): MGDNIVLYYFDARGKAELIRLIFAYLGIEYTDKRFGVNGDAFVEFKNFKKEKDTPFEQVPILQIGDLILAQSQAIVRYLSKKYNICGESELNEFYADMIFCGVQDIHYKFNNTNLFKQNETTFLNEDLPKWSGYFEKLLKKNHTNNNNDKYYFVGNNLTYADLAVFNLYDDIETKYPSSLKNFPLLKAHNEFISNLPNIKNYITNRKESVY
In words: GST inhibition assay (CDNB). The format is biochemical. Here is the method:
as §1

Data set [2] deals with recombinant P. berghei GST. In words: GST inhibition assay (CDNB). Type of data set: biochemical, Plasmodium berghei. Here is the method: as §1
For data set [3], the system named is P. cynomolgi hypnozoites and hepatic schizonts. In words: P. cynomolgi liver-stage inhibition assay. As to conditions: Plasmodium cynomolgi, prophylactic drug treatment mode. The format is cell-based, Plasmodium cynomolgi. Here is the method: (§2) Primary primate hepatocytes were seeded in 384-well plates and used within 2–4 days ([56]). P. cynomolgi B strain parasites were inoculated and developed into hypnozoites and schizonts. CB compounds were tested in 8-point, threefold serial dilutions (100 µM to […]) for both prophylactic (4 days starting with sporozoite addition) and radical cure (4 days starting day 4 post-inoculation) modalities ([56][–][60]). The Operetta CLS imaging system and Harmony Software 4.9 (Perkin Elmer, Waltham, MA, USA) analyzed the plates, and the percentage of inhibition (PI) was calculated in Python using equation (1), where parasitic quantities (hypnozoite and schizont counts) were normalized to the negative control ([57]). Each plate included negative (DMSO) and positive (KDU691, maduramicin, tafenoquine) controls ([58]). IC50 values were determined using an 8-point, threefold dilution format and a Python-adapted grid algorithm for fitting PI to a four-parameter logistic function ([61]).
PI = 100 ∗(1−(xy/Meanneg))

In the next data set the test system is P. falciparum W2. The data set can be described thus: Malaria SYBR Green I-Based Fluorescence (MSF) assay, blood stages. Type of data set: cell-based. As to conditions: Plasmodium falciparum, W2; blood stages, 72 hours, CQ resistant strain; read-out: IC50 (µM) (±SD) for strain: W2. Here is the method: (§3) MSF assays were performed in vitro with four P. falciparum strains: D6 (drug sensitive), TM91-C235 (multidrug resistant), W2 (CQ resistant), and C2B (multidrug resistant against ATQ). Parasite strains were kept continuously in long-term cultures as described ([22]). Pre-dosed 384-well plates containing […] serial dilutions of CB compounds (0.0098–20 µM) were prepared using the Tecan Freedom Evo liquid handling system (Tecan USA, Inc., Durham, NC, USA) and were stored at 4°C. A CQ control plate (2,000 ng/mL) was included in each run. Based on modifications of previous methods ([17], [55]), late-ring or early-trophozoite stages were cultured in pre-dosed plates with 0.3% parasitemia and 2% hematocrit. Cultures were incubated for 72 hours at 37°C in a controlled atmosphere of 5% CO2, 5% O2, and 90% N2. Lysis buffer, consisting of 20 mM Tris HCl, 5 mM EDTA, 1.6% Triton X, 0.016% saponin, and SYBR Green I dye at a 20X concentration (Invitrogen #S-7567), was added to the plates for a final 10X SYBR Green concentration. Plates containing cell culture media and lysis buffer were incubated in the dark at 25°C for 24 hours, and the relative fluorescence units (RFU) were measured using the Tecan Genios Plus (Tecan USA, Inc.).

The subject of the next data set is P. falciparum C2B. The data set is described as above. As to conditions: Plasmodium falciparum, 72 h, read-out: IC50 (µM) (±SD) for strain: C2B. Type of data set: cell-based. Here is the method: as §3
In the next data set the test system is P. falciparum D6. Described as above. Type of data set: cell-based. Particulars: Plasmodium falciparum, D6; blood stages, 72 hours, drug-sensitive strain; read-out: IC50 (µM) (±SD) for strain: D6. Here is the method:
as §3

The test system of the next data set is P. falciparum TM91c235. The data set is described as above. As to conditions: Plasmodium falciparum; blood stages, 72 hours, multidrug resistant strain; read-out: IC50 (µM) (±SD) for strain: TM91c235. Type of data set: cell-based. Here is the method:
as §3

A further data set in a line: in vitro. Particulars: human, HepG2 cells.
The subject of data set [4] is P. berghei ookinete development (Ookluc parasites). The data set can be described thus: P. berghei ookinete luciferase inhibition assay. As to conditions: dose–response 2.5–75 µM. Type of data set: cell-based, Plasmodium berghei. Here is the method:
Mice were pretreated with phenylhydrazine [6 mg/mL, intraperitoneal injection (IP)] 3 days before intravenous injection (IV) infection with P. berghei Ookluc parasites ([19], [62]). Once parasitemia exceeded 15%, the mice received PYR (1 mg/mL, IP) ([19], [62]). Twenty-four hours after PYR treatment, infected mice were assessed for at least 10 exflagellations before blood was collected by heart puncture ([19], [62]). Infected blood (1:20 dilution) was incubated with 8-point serial dilutions (2.5–75 µM) of CB compounds for 24 hours at 19°C with gentle shaking ([62], [64]). Relative luminescence units (RLU) of mature ookinetes were measured using the Promega Nano-Glo Luciferase Assay System Kit and a SpectraMax M3 Microplate Reader (Molecular Devices, San Jose, CA, USA) after 3 minutes. Giemsa blood smears confirmed ookinetes.

Data set [5] has as its system primary primate hepatocytes. In words: hepatocyte toxicity in the P. cynomolgi liver-stage assay. The format is cell-based. Here is the method: as §2
The subject of data set [6] is P. berghei male gamete activation. The data set can be described thus: Exflagellation assay (male gametocyte activation). Type of data set: cell-based, Plasmodium berghei. As to conditions: 125 nM, positive control. Here is the method: Exflagellation assays were performed to assess the effect of CB compounds on P. berghei male gametocyte activation ([19]). Tail blood from PYR-administered mice was mixed with DMSO, aphidicolin (125 nM), or CB compounds (10 µM) in complete ookinete medium and heparin (30 µg/mL) ([19]). After a 15-minute incubation, the sample was diluted in complete ookinete medium with 10 µM inhibitor and adjusted to a final blood concentration of 1:20. Exflagellations were quantified by counting all events in the middle squares of a hemocytometer. The effect of CB compounds on macrogamete formation was analyzed by flow cytometry using the anti-Pbs21 antibody ([65]). Following PYR administration, infected blood for cardiac puncture was cultured with CB compounds (10 µM) for 2 hours to stimulate gametocyte activation ([66]). Aliquots were then incubated with anti-Pbs21 antibody (1:500) for 1 hour, followed by anti-mouse IgG conjugated Alexa Fluor 594 (1:1,000) for another hour ([65]). Samples were centrifuged (3,000 × g for 3 minutes), pellets were resuspended in phosphate-buffered saline (PBS) and analyzed by flow cytometry (FACSCelesta, FACS Diva Software, BD Biosciences, San Jose, CA, USA) with 1 million events counted per experiment ([66]).

For data set [7], the system named is P. berghei blood-stage parasites. The data set can be described thus: P. berghei blood-stage isobolograms. Particulars: LUM in combination with DHA (positive control). The format is cell-based, Plasmodium berghei. Here is the method: Antimalarial activity and IC50 values of CB-61 and five antimalarial drugs were assessed using the previously described in vitro drug luminescence assay ([14], [68]). Blood-stage isobolograms were performed to confirm synergistic combinations between CB-61 and the five drugs, following established protocols ([69]). Thirty-two-fold IC50 concentrations were used to obtain six concentration ranges for each drug combination, and then they were serially diluted five times ([67]). IC50 scores for each drug alone were determined, and FIC50 values (FIC50 = […]) were calculated and plotted ([70], [71]). The Promega Luciferase Assay System Kit was used to measure mature schizonts’ RLUs, and Giemsa blood smears confirmed the presence of schizonts ([14]).

Where [8] appears, read: recombinant GST 0.35 mg/mL, 1–50 µM.

Read-outs that look alike come from different tables or passages of the source.

Protocol for in vitro: HepG2 cell viability was assessed using the Cell Proliferation kit with trypan blue exclusion. […] After incubation, a 1.5-mg/mL Cell Proliferation kit solution diluted in complete MEM medium was added to each well, followed by 1-hour dark incubation at 25°C. After aspiration of media and inhibitors, the plates were dried in a hood for 15 minutes, and acidified isopropyl alcohol was added to dissolve formazan dye crystals. The plates were then rotated for 15–30 minutes, and absorbance was determined using a Perkin Elmer Ensight plate reader.

A word on the IC50: it is the concentration that gives 50% inhibition. As to Hemin [reference compound], the IC50 on human GST (setting [8]) is less than 1000 nM; in data set [1] (setting [8]), 1600 nM; in data set [2] (setting [8]) it was 16100 nM.
Take `O=C(Nc1cc(Cl)ccc1O)c1cc2nc(-c3ccccc3)cc(-c3ccccc3)n2n1` [CB-59]: the IC50 is more than 10000 nM in data set [3] (read-out: Hypnozoite IC50); more than 10000 nM in data set [3] (read-out: Schizont IC50); more than 10000 nM in data set [3] (read-out: Total parasite IC50); 0.69 µM with P. falciparum W2; 2.91 µM with P. falciparum C2B; 1.73 µM in the data set on P. falciparum D6. Also, the IC50 in the data set on P. falciparum TM91c235 came out at 2.96 µM. Also, the IC50 at 48 h in “in vitro” is more than 20000 nM. In addition, the GST inhibition entry (on human GST (6-point 1–50 µM); in [1] (6-point 1–50 µM); in [2] (6-point 1–50 µM)) was “did not inhibit” each time. Also, in [4], the “activity in ookinete formation” value is recorded as “no activity”. The compound also returned a Toxicity in [5] of more than 10 µM.
Regarding `C[C@@]1(CO)[C@H](O)CC[C@@]2(C)[C@H]1CC[C@H]1C[C@@H]3C[C@@]12CC[C@]3(O)CO` [aphidicolin], the “number of exflagellation events” value in data set [6] is less than 50%.
As for `CCCCN(CCCC)CC(O)c1cc(Cl)cc2c1-c1ccc(Cl)cc1/C2=C/c1ccc(Cl)cc1` (stereo not drawn) [LUM, lumefantrine, reference compound], the “Mean ΣFIC50” value in [7] was 0.74.
